Data from patent US20190054051A1, “DOPA Formulations for Treatments of Parkinson's Disease” (The Board of Trustees of the Leland Stanford Junior …, priority 2017, published 2019).

What was measured:
[1] = test system: Akt; experiment: Western blot of phospho Akt (T308, S473) in striatum; parameters: species or system mice; conditions: mouse, in vivo
Protocol: After behavioral testing, mice again received their assigned injection and then, 45 minutes later, were decapitated under anesthesia. Tissue samples were processed as follows. Briefly, the brain was dissected, rapidly frozen on dry ice, and stored at −80° C. Striatal tissue was collected from 100 μm coronal slices cut at the level of striatum using a cryostat (Leica CM1950, Leica Biosystems Inc, Buffalo Groove, Ill.). Striatal samples from the intact and the lesioned hemisphere were separately collected in 150p1 of lysis solution (Totally RNA, Ambion, Austin, Tex.). Care was taken to make sure that the tissue samples were collected from similar regions in all the brain samples analyzed, since there are differences in the expression of GRKs from rostral to caudal CPu. Protein concentration was estimated using Bradford reagent (Bio-Rad, Hercules, Calif.). 200m protein was precipitated with 100% methanol and centrifuged at 10000 g for 10 mins in a table top centrifuge. The pellet was re-suspended in 90% methanol and centrifuged for an additional 10 mins at 10000 g. The supernatant was discarded and the pellet was air dried and dissolved in 400 μL of β-mercaptoethanol containing 2× Laemmli sample buffer (Biorad, Hercules, Calif.), for a final concentration of 0.5 mg/mL. These samples were stored at −80° C. until use. Samples were electrophoresed through 10% polyacrylamide gels and transferred on to Immobilon-P PVDF membranes (Millipore, Bedford, Mass.) and processed. […] Western blots were quantified using band densitometry in Image J software (NIH version). […] Results are represented as group mean±SEM and analyzed using one-way or repeated-measures ANOVA (RM-ANOVA), with post hoc Bonferroni tests. The mouse cylinder test was analyzed with RM-ANOVA, with group (DOPA and DOPA-ranitidine formulations) as a between-group factor and saline vs. DOPA treatment as a within-group factor. AIMs scores were analyzed using the Kruskal Wallis test for pre-testing (DOPA injected animals) and the Mann-Whitney U test for the post-testing sessions (DOPA vs DOPA-ranitidine formulations). […]

[2] = test system: p38; experiment: Western blot of phospho p38 and total p38 in striatum; format: in vivo, mice
Protocol: After behavioral testing, mice again received their assigned injection and then, 45 minutes later, were decapitated under anesthesia. Tissue samples were processed as follows. Briefly, the brain was dissected, rapidly frozen on dry ice, and stored at −80° C. Striatal tissue was collected from 100 μm coronal slices cut at the level of striatum using a cryostat (Leica CM1950, Leica Biosystems Inc, Buffalo Groove, Ill.). Striatal samples from the intact and the lesioned hemisphere were separately collected in 150p1 of lysis solution (Totally RNA, Ambion, Austin, Tex.). Care was taken to make sure that the tissue samples were collected from similar regions in all the brain samples analyzed, since there are differences in the expression of GRKs from rostral to caudal CPu. […]
Western blots were quantified using band densitometry in Image J software (NIH version). […] Results are represented as group mean±SEM and analyzed using one-way or repeated-measures ANOVA (RM-ANOVA), with post hoc Bonferroni tests. The mouse cylinder test was analyzed with RM-ANOVA, with group (DOPA and DOPA-ranitidine formulations) as a between-group factor and saline vs. DOPA treatment as a within-group factor. AIMs scores were analyzed using the Kruskal Wallis test for pre-testing (DOPA injected animals) and the Mann-Whitney U test for the post-testing sessions (DOPA vs DOPA-ranitidine formulations). […]

| SMILES | Akt phosphorylation at Thr308 in the lesioned striatum [1] | p38 phosphorylation in the lesioned hemisphere [2] | Akt phosphorylation at Ser473 [1] |
| --- | --- | --- | --- |
| CN/C(=C\[N+](=O)[O-])NCCSCc1ccc(CN(C)C)o1 [Ranitidine, N-(2-[(5-[(dimethylamino)methyl]furan-2-yl)methylthio]ethyl)-N′-methyl-2-nitroethene-1,1-diamine] | no effect | – | – |
| N[C@@H](Cc1ccc(O)c(O)c1)C(=O)O [L-DOPA, L-3,4-dihydroxyphenylalanine] | elevated in the lesioned striatum | increased in the lesioned hemisphere only after DOPA treatment | not statistically significant |
